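Assay format: 96-well plates, 48-hour exposure. At the TGI there is no net growth.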
Tests used:
Test in all cases: NCI-60 cell line screen, 48 h
[1] = system: LOX IMVI melanoma
[2] = system: DMS 114 small cell lung
[3] = system: SN12C renal
[4] = system: SNB-78 CNS
[5] = system: TK-10 renal
[6] = system: HCT-15 colon
[7] = system: UACC-257 melanoma
[8] = system: ACHN renal
[9] = system: UO-31 renal
[10] = system: SK-MEL-28 melanoma
[11] = system: IGROV1 ovarian
[12] = system: K-562 leukemia
[13] = system: RXF 393 renal
[14] = system: HOP-18 NSCLC
[15] = system: OVCAR-4 ovarian
[16] = system: SR leukemia
[17] = system: M19-MEL melanoma
[18] = system: SK-MEL-5 melanoma
[19] = system: HOP-92 NSCLC
[20] = system: HCC-2998 colon
[21] = system: OVCAR-3 ovarian
[22] = system: EKVX NSCLC
[23] = system: SNB-19 CNS
[24] = system: RPMI-8226 leukemia
[25] = system: SF-268 CNS
[26] = system: UACC-62 melanoma
[27] = system: SK-MEL-2 melanoma
[28] = system: M14 melanoma
[29] = system: HOP-62 NSCLC
[30] = system: HL-60(TB) leukemia
[31] = system: KM20L2 colon
[32] = system: A549 NSCLC
[33] = system: SW-620 colon
[34] = system: SNB-75 CNS
[35] = system: HCT-116 colon
[36] = system: COLO 205 colon
[37] = system: NCI-H460 lung
[38] = system: U251 CNS
[39] = system: HT29 colon
[40] = system: SF-539 CNS
[41] = system: NCI-H23 lung
[42] = system: OVCAR-5 ovarian
[43] = system: LXFL 529 NSCLC
[44] = system: CCRF-CEM leukemia
[45] = system: MOLT-4 leukemia
[46] = system: OVCAR-8 ovarian
[47] = system: DMS 273 small cell lung
[48] = system: MALME-3M melanoma
[49] = system: PC-3 prostate
[50] = system: 786-0 renal
[51] = system: MDA-MB-231 breast
[52] = system: SK-OV-3 ovarian
[53] = system: KM12 colon
[54] = system: SF-295 CNS
[55] = system: T-47D breast
[56] = system: MCF7 breast
[57] = system: NCI/ADR-RES ovarian
[58] = system: NCI-H226 lung
[59] = system: MDA-MB-435
[60] = system: HS 578T breast
[61] = system: A498 renal
[62] = system: MDA-N
[63] = system: BT-549 breast
[64] = system: NCI-H522 lung
[65] = system: DU-145 prostate
[66] = system: CAKI-1 renal

Compound: Cc1cc(=O)[nH]c(NN2C(Cl)C(=O)C2c2ccc([N+](=O)[O-])cc2)n1 (stereo unspecified)
- TGI [1]: 19.2 µM
- TGI [2]: 28.7 µM
- TGI [3]: 24.5 µM
- TGI [4]: 25 µM
- TGI [5]: 29.7 µM
- TGI [6]: 22.5 µM
- TGI [7]: 37.6 µM
- TGI [8]: 33.7 µM
- TGI [9]: 43.1 µM
- TGI [10]: 27.1 µM
- TGI [11]: 16.1 µM
- TGI [12]: 15 µM
- TGI [13]: 14.1 µM
- TGI [14]: 23.9 µM
- TGI [15]: 28.8 µM
- TGI [16]: 34.5 µM
- TGI [17]: 17.3 µM
- TGI [18]: 27.3 µM
- TGI [19]: 27.3 µM
- TGI [20]: 31.1 µM
- TGI [21]: 20.6 µM
- TGI [22]: 78.8 µM
- TGI [23]: > 100 µM
- TGI [24]: 30.9 µM
- TGI [25]: 41 µM
- TGI [26]: 11.5 µM
- TGI [27]: 19.6 µM
- TGI [28]: 23 µM
- TGI [29]: 23 µM
- TGI [30]: 24.9 µM
- TGI [31]: 56.7 µM
- TGI [32]: > 100 µM
- TGI [33]: 79.7 µM
- TGI [34]: 9.11 µM
- TGI [35]: 22.3 µM
- TGI [36]: 35.9 µM
- TGI [37]: 18.8 µM
- TGI [38]: 36.7 µM
- TGI [39]: 43.8 µM
- TGI [40]: 27 µM
- TGI [41]: 26.1 µM
- TGI [42]: 52.8 µM
- TGI [43]: 20.8 µM
- TGI [44]: 6.6 µM
- TGI [45]: 43.2 µM
- TGI [46]: 82.5 µM
- TGI [47]: 22.7 µM

Compound: O=C1OC[C@H]2[C@@H]1[C@H]1O[C@@H]2C2=C(CCC2)C1=O
- TGI [1]: > 100 µM
- TGI [48]: > 100 µM
- TGI [3]: > 100 µM
- TGI [5]: > 100 µM
- TGI [6]: > 100 µM
- TGI [7]: > 100 µM
- TGI [8]: > 100 µM
- TGI [9]: > 100 µM
- TGI [10]: > 100 µM
- TGI [11]: > 100 µM
- TGI [49]: > 100 µM
- TGI [12]: > 100 µM
- TGI [50]: > 100 µM
- TGI [13]: > 100 µM
- TGI [51]: > 100 µM
- TGI [15]: > 100 µM
- TGI [16]: > 100 µM
- TGI [18]: > 100 µM
- TGI [19]: > 100 µM
- TGI [20]: > 100 µM
- TGI [21]: > 100 µM
- TGI [22]: > 100 µM
- TGI [23]: > 100 µM
- TGI [24]: > 100 µM
- TGI [52]: > 100 µM
- TGI [25]: > 100 µM
- TGI [26]: > 100 µM
- TGI [27]: > 100 µM
- TGI [28]: > 100 µM
- TGI [29]: > 100 µM
- TGI [30]: > 100 µM
- TGI [53]: > 100 µM
- TGI [54]: > 100 µM
- TGI [32]: > 100 µM
- TGI [55]: > 100 µM
- TGI [33]: > 100 µM
- TGI [34]: > 100 µM
- TGI [35]: > 100 µM
- TGI [56]: > 100 µM
- TGI [57]: > 100 µM
- TGI [36]: > 100 µM
- TGI [58]: > 100 µM
- TGI [37]: > 100 µM
- TGI [38]: > 100 µM
- TGI [59]: > 100 µM
- TGI [60]: > 100 µM
- TGI [61]: > 100 µM
- TGI [39]: > 100 µM
- TGI [62]: > 100 µM
- TGI [63]: > 100 µM
- TGI [40]: > 100 µM
- TGI [41]: > 100 µM
- TGI [42]: > 100 µM
- TGI [64]: > 100 µM
- TGI [65]: > 100 µM
- TGI [44]: > 100 µM
- TGI [46]: > 100 µM

Compound: O=C(Cc1ccc(Cl)c(Cl)c1)NCC1(N2CCCCC2)CCCCC1
- TGI [1]: > 100 µM
- TGI [48]: 47.2 µM
- TGI [3]: > 100 µM
- TGI [5]: > 100 µM
- TGI [6]: > 100 µM
- TGI [7]: 36.7 µM
- TGI [8]: > 100 µM
- TGI [9]: > 100 µM
- TGI [11]: > 100 µM
- TGI [49]: > 100 µM
- TGI [12]: > 100 µM
- TGI [66]: > 100 µM
- TGI [50]: > 100 µM
- TGI [13]: 53 µM
- TGI [51]: > 100 µM
- TGI [15]: > 100 µM
- TGI [16]: > 100 µM
- TGI [19]: > 100 µM
- TGI [20]: 39.1 µM
- TGI [21]: > 100 µM
- TGI [22]: > 100 µM
- TGI [23]: > 100 µM
- TGI [24]: > 100 µM
- TGI [52]: > 100 µM
- TGI [25]: > 100 µM
- TGI [26]: 42 µM
- TGI [27]: > 100 µM
- TGI [28]: 34.4 µM
- TGI [29]: > 100 µM
- TGI [30]: > 100 µM
- TGI [53]: > 100 µM
- TGI [54]: > 100 µM
- TGI [32]: > 100 µM
- TGI [55]: 89.7 µM
- TGI [33]: > 100 µM
- TGI [35]: > 100 µM
- TGI [56]: > 100 µM
- TGI [57]: > 100 µM
- TGI [37]: > 100 µM
- TGI [38]: > 100 µM
- TGI [59]: > 100 µM
- TGI [60]: > 100 µM
- TGI [61]: > 100 µM
- TGI [39]: > 100 µM
- TGI [62]: > 100 µM
- TGI [63]: > 100 µM
- TGI [41]: > 100 µM
- TGI [42]: > 100 µM
- TGI [64]: > 100 µM
- TGI [65]: > 100 µM
- TGI [44]: > 100 µM
- TGI [45]: > 100 µM
- TGI [46]: > 100 µM

Compound: C=C1C(=O)OC2CC(C)C3CC(O)OC(OCC)C3(C)CC12 (stereo unspecified)
- TGI [1]: 17.4 µM
- TGI [48]: 23.3 µM
- TGI [3]: 33.2 µM
- TGI [5]: 45.2 µM
- TGI [6]: 21.3 µM
- TGI [7]: 31.5 µM
- TGI [8]: 39.5 µM
- TGI [9]: 53.7 µM
- TGI [10]: 27.5 µM
- TGI [11]: 48.1 µM
- TGI [49]: 45.9 µM
- TGI [12]: > 57.4 µM
- TGI [66]: 42.9 µM
- TGI [50]: 25.1 µM
- TGI [13]: 28.3 µM
- TGI [51]: 34.8 µM
- TGI [15]: 50.3 µM
- TGI [16]: > 63.1 µM
- TGI [18]: 31.7 µM
- TGI [19]: 35.1 µM
- TGI [20]: 30.6 µM
- TGI [21]: 31.3 µM
- TGI [22]: > 62.2 µM
- TGI [23]: > 75.5 µM
- TGI [24]: 51 µM
- TGI [52]: 87.2 µM
- TGI [25]: 34 µM
- TGI [26]: > 52.1 µM
- TGI [27]: 29.8 µM
- TGI [28]: 28.5 µM
- TGI [29]: 47.6 µM
- TGI [30]: > 30 µM
- TGI [53]: 42.6 µM
- TGI [54]: 90.6 µM
- TGI [32]: > 96.6 µM
- TGI [55]: 33.1 µM
- TGI [33]: 19 µM
- TGI [34]: 50.8 µM
- TGI [35]: 26 µM
- TGI [56]: 26.7 µM
- TGI [57]: 39.2 µM
- TGI [36]: 33.5 µM
- TGI [58]: 63.1 µM
- TGI [37]: 38.6 µM
- TGI [38]: 33.8 µM
- TGI [59]: 37.6 µM
- TGI [60]: 72.8 µM
- TGI [61]: > 69.1 µM
- TGI [39]: 38.5 µM
- TGI [62]: 35.7 µM
- TGI [63]: > 58.4 µM
- TGI [40]: 35.4 µM
- TGI [41]: 30.9 µM
- TGI [42]: 54.4 µM
- TGI [64]: 18.8 µM
- TGI [65]: > 100 µM
- TGI [44]: > 100 µM
- TGI [45]: 56.4 µM
- TGI [46]: 31.4 µM
